Legend:
Type in all cases: in vivo
[1] = tested on: house flies; test: Study of knock-down activity of house flies (direct atomization in a Kearns and March chamber); settings: concentration at 0.1 g/l; female house flies 4 days old; acetone (5%) and Isopar L
Description: (1) Study of knock-down activity of house flies
The test insects were female house flies 4 days old and the test was effected by direct atomization in a Kearns and March chamber using as solvent a mixture of acetone (5%) and Isopar L (petrol solvent) (quantity of solvent used, 2 ml in one second). 50 insects were used per treatment and checks were made every minute for 10 minutes, then at 15 minutes, and the KT50 was determined by the usual methods.

[2] = tested on: Aphis cracivora; test: Study of lethal effect on Aphis cracivora (contact-ingestion method); parameters: unit not given here; settings: adults 7 days old; 1 hour contact with treated bean leaf; mortality checked after 24 hours
Description: (3) Study of lethal effect on Aphis cracivora
Adults 7 days old were used with 10 aphis per concentration using a contact-ingestion method. The treatment was carried out with a Fisher gun on a bean leaf which was placed in a plastic Petri dish on a disc of moistened paper. 2 ml of an acetone solution of the product under test were used with 1 ml per face of the leaf and the insect infestation was carried out after drying the leaf. The insects were kept in contact with the leaf for 1 hour and then they were placed on untreated leaves.

[3] = tested on: Tetranychus urticae; test: Activity on Tetranychus urticae, test of lethal effect on adults; settings: females on treated bean leaves; checked after 80 hours of contact
Description: (4) Activity on Tetranychus urticae, test of lethal effect on adults
Bean plants having two cotyledon leaves were used which were treated with a Fisher gun with an acetone solution of the product. After drying, 25 females of the acaridan Tetranychus urticae were placed on each leaf, that is 50 individuals per experimental dose per plant. The efficacity was checked after 80 hours of contact, and the LD 50 was indicated in mg/hl.

[4] = tested on: cockroaches (Blatella germanica); test: Study of activity by tarsal contact on cockroaches; settings: male Blatella germanica; 1 hour on dried acetone deposit; mortality checked at 24 hours, 48 hours, 3 days and 5 days
Description: (2) Study of activity by tarsal contact on cockroaches
The insects tested were male cockroaches (Blatella germanica) and the test was carried out by depositing an acetone solution of a certain concentration on the bottom of a Petri dish 20 cm in diameter. After this had dried, 20 male cockroaches were allowed to stay there per concentration for 1 hour, after which they were transferred to a healthy medium and their mortality was checked at 24 hours, 48 hours, 3 days and 5 days. The result was expressed as lethal concentration 50 (LC 50) in mg/m^2.

Row | SMILES | KT 50 [1] | LD 50 [2] | LD 50 [3] | lethal concentration 50 (LC 50) [4]
1 | C#CCn1ccc(COC(=O)[C@@H]2[C@@H](C=C(Cl)C(F)(F)F)C2(C)C)c1C#N [Example 49, [1-(2-propynyl)-2-cyano-1H-pyrrol-3-yl]-methyl 1R, trans (E,1/3) (Z,2/3) 2,2-dimethyl-3-(2-chloro-2-trifluoromethylethenyl)-cyclopropane carboxylate] | 11.0 min | 6.5 |  | 
2 | C#CCn1ccc(COC(=O)[C@@H]2[C@H](/C=C(\Cl)C(F)(F)F)C2(C)C)c1C#N [Example 43, [2-cyano-1-(2-propynyl)-1H-pyrrol-3-yl]-methyl (1R,cisΔZ) 2,2-dimethyl-3-[(2-chloro-3,3,3-trifluoro)-1-propenyl]-cyclopropane carboxylate] | 2.9 min | 7.5 | 342 mg/hl | 2.8 mg/m^2
